{"source": "patent US20220306603A1", "about": "“TARGETING DNA REPAIR IN TUMOR CELLS VIA INHIBITION OF ERCC1-XPF” (The Governors of the University of Alberta, priority 2019, published 2022)", "key": {"[1]": {"molecular_target": "T1, ERCC1-XPF (Homo sapiens, UniProt Q92889)", "T1 construct": "His6; made in house; host or cells: E. coli BL21 (DE3)", "T1 sequence (Q92889 1-916)": "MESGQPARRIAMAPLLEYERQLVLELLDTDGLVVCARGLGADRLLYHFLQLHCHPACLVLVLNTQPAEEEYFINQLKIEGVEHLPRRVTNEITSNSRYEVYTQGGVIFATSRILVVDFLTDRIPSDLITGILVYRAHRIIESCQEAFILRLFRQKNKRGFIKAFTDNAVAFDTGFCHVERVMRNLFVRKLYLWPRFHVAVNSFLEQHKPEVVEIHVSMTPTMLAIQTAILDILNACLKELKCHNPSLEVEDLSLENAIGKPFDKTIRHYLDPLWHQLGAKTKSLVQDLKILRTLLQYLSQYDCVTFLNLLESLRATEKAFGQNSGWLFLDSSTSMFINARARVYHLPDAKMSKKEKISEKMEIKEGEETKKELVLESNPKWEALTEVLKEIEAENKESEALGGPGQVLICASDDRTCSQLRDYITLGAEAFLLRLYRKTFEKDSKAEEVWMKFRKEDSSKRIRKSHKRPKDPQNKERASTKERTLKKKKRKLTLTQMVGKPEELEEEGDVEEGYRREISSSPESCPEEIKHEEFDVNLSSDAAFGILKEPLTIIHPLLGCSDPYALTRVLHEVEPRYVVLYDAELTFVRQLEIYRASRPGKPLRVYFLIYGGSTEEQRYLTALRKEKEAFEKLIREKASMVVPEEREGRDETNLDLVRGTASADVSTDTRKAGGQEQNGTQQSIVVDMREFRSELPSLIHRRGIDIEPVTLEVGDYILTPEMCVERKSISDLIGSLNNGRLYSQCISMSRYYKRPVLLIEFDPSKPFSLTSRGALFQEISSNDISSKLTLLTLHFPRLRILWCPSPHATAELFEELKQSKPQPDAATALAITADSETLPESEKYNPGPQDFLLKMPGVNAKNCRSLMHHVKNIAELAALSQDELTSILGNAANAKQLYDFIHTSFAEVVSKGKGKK", "experiment": "Microplate fluorescence incision assay of ERCC1-XPF endonuclease activity", "type": "biochemical", "conditions": "for inhibition of ERCC1-XPF endonuclease activity (in words): compounds 10 μM each", "excerpt": "This assay has been previously described (29), and utilizes a stem-loop substrate (composed of a 10mer-duplex stem and a 20mer-oligodT single-strand loop), labelled on the 5′-terminus with 6-FAM and 3′ with the quencher dabcyl.\nHuman ERCC1-XPF wild-type protein was obtained as previously described (29). Basically, the recombinant protein was expressed from a bicistronic plasmid (provided by Dr. Richard Wood, University of Texas MD Anderson Cancer Center, Smithville, Tex.) in the E. coli BL21 (DE3) strain. Since both XPF and ERCC1 contained a polyhistidine (His-6) tag, the proteins extracted from E. coli were incubated with a ProBond Nickel-Chelating Resin (Thermo Fisher Scientific). Protein eluted from the Ni affinity column was subsequently loaded into a Hi-trap heparin column (GE Healthcare). Fractions recovered from the heparin column that contained ERCC1-XPF were dialyzed, concentrated and stored at −80° C. in 10 mM HEPES pH 7.4, 2.5 mM p-mercaptoethanol, 0.01% CHAPS, 0.25 mM EDTA, 50% glycerol and 25 mM NaCl.\nA previously described protocol (2,29) was followed."}, "[2]": {"tested_on": "HCT116 cells", "experiment": "Clonogenic survival assay, cyclophosphamide treatment", "type": "cell-based, human", "conditions": "cyclophosphamide 0-300 μM, compound 1-4 μM", "description": "Plates were incubated for another 8 days at 37° C. in a 5% CO2 atmosphere for colony formation. After this period plates were stained with crystal violet, colonies were counted, and plating efficiency and surviving fraction were calculated."}, "[3]": {"experiment": "ADME screening: solubility", "type": "physicochemical", "conditions": "Table 8"}, "[4]": {"tested_on": "serum proteins", "experiment": "ADME screening: serum protein binding", "type": "in vitro ADME", "conditions": "Table 8"}, "[5]": {"experiment": "Hepatocyte stability in vitro", "type": "in vitro ADME", "conditions": "Table 8"}, "[6]": {"experiment": "ADME screening: LogD", "conditions": "Table 8"}, "[7]": {"molecular_target": "T2, CYP1A2 (Homo sapiens, UniProt P05177)", "T2 sequence (P05177 1-516)": "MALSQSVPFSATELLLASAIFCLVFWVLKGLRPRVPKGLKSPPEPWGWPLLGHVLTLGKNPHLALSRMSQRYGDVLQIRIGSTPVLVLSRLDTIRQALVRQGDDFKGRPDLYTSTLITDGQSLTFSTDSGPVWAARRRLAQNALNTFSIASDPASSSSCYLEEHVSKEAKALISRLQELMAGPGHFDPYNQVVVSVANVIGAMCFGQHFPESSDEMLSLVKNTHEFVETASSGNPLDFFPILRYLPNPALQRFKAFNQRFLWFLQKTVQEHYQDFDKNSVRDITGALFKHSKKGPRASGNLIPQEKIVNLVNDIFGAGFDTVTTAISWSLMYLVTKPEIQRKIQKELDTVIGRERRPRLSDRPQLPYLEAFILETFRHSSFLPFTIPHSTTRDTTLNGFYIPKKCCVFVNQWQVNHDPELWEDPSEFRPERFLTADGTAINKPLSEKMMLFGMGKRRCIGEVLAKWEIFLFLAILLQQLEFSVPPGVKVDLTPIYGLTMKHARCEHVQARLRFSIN", "experiment": "CYP450 inhibition, CYP1A2"}, "[8]": {"molecular_target": "CYP2D6 (Homo sapiens, UniProt P10635)", "sequence (P10635 whole entry)": "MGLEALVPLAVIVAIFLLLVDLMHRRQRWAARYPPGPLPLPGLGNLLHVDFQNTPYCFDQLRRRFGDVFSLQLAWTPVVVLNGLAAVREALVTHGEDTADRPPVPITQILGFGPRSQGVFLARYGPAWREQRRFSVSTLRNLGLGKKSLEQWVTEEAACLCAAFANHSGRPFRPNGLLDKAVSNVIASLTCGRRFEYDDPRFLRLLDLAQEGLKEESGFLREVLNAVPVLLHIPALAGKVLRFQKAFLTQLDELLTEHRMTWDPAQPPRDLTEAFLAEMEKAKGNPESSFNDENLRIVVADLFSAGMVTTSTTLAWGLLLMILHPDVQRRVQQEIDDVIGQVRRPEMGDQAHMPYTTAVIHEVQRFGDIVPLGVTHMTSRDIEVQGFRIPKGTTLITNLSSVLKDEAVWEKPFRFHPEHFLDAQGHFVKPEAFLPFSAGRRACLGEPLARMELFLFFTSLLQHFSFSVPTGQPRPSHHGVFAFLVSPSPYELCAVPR", "experiment": "CYP450 inhibition, CYP2D6"}, "[9]": {"molecular_target": "CYP3A4-M (Homo sapiens, UniProt P08684)", "sequence (P08684 whole entry)": "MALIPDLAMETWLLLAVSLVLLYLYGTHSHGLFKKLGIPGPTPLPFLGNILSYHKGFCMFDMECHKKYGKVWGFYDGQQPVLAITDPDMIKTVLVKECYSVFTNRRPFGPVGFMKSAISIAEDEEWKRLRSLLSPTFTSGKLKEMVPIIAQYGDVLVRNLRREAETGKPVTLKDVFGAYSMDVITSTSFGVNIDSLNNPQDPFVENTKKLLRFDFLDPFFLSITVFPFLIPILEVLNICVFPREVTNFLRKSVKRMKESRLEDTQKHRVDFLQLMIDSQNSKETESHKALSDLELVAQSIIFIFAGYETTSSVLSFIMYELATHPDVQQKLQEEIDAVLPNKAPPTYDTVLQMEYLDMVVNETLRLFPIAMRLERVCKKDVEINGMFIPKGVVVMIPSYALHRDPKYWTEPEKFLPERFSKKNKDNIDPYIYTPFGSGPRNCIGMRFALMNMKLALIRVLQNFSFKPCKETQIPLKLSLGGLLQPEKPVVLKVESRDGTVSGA", "experiment": "CYP450 inhibition, CYP3A4-M"}, "[10]": {"experiment": "ADME screening: cell permeability and efflux ratio", "conditions": "Table 8"}, "[11]": {"tested_on": "five CYP450 enzymes (CYP1A2, CYP2C9, CYP2C19, CYP2D6, CYP3A4-M)", "experiment": "ADME screening: CYP inhibition (five CYP450 enzymes)", "conditions": "human"}, "[12]": {"tested_on": "five CYP450 tested enzymes", "experiment": "ADME screening: CYP inhibition (five CYP450 enzymes)", "conditions": "Table 8"}, "[13]": {"experiment": "Microsomal stability in vitro (human liver microsomes)"}}, "note": "Entries after “also recorded” stand apart in the source; their conditions may differ.", "data": [{"smiles": "COc1ccc2nc3cc(Cl)ccc3c(Nc3ccc(O)c(CN4CCN(CCN(C)C)CC4)c3)c2c1", "note": "[Compound A4, 4-((6-Chloro-2-methoxyacridin-9-yl)amino)-2-((4-(2-(dimethylamino)ethyl)piperazin-1-yl)methyl) phenol]", "values": [{"measurement": "enzyme activity after pre-incubation of ERCC1-XPF with compound (in words)", "setting": "[1]; 3 μM compound, 10% or 5% DMSO", "result": "time-dependent loss of enzyme activity"}, {"measurement": "inhibition of ERCC1-XPF endonuclease activity (in words)", "setting": "[1]", "result": "marked capacity to inhibit; also recorded: potent inhibitors"}, {"measurement": "inhibition of ERCC1-XPF endonuclease activity (in words)", "setting": "[1]; listed as Gen A-4", "result": "significantly better inhibitory properties"}, {"measurement": "sensitisation to cyclophosphamide, clonogenic survival (in words)", "setting": "[2]", "result": "no colonies were observed; also recorded: significantly sensitized the cells to cyclophosphamide; also recorded: no colonies were detected"}, {"measurement": "sensitisation to cyclophosphamide, clonogenic survival (in words)", "setting": "[2]; listed as Gen A4", "result": "significantly sensitized the cells to cyclophosphamide"}, {"measurement": "Solubility (in words)", "setting": "[3]", "result": "Poor"}, {"measurement": "Serum protein binding (% bound)", "setting": "[4]", "result": "(99.9) % bound"}, {"measurement": "Serum protein binding (in words)", "setting": "[4]", "result": "Strong"}, {"measurement": "Hepatocyte stability in vitro CLint (in words)", "setting": "[5]", "result": "(medium"}, {"measurement": "LogD (rating)", "setting": "[6]", "result": "Good"}, {"measurement": "logD", "setting": "[6]", "result": 2.86}, {"measurement": "IC50", "setting": "[7]", "result": 6.4, "unit": "µM"}, {"measurement": "inhibition of CYP2D6 (in words)", "setting": "[8]", "result": "weak inhibitor"}, {"measurement": "inhibition of CYP3A4-M (in words)", "setting": "[9]", "result": "weak inhibitor"}, {"measurement": "Cell permeability (Mean recovery %) (in words)", "setting": "[10]", "result": "Low"}, {"measurement": "IC50", "setting": "[11]", "result": "≥ 1", "unit": "µM"}, {"measurement": "CVP inhibition (5 enzyme) (rating)", "setting": "[12]", "result": "Good"}, {"measurement": "metabolism on exposure to human liver microsomes (in words)", "setting": "[13]", "result": "metabolism in the midrange"}, {"measurement": "Microsomal stability in vitro CLint (in words)", "setting": "[13]; Table 8", "result": "Low"}]}]}
